# Test results published in patent publication US10730889B2, “Amido spirocyclic amide and sulfonamide derivatives” (Forma TM, LLC, priority 2012, dated 2020).
# Tested on: A2780 cells
# Assay: In-vitro cell proliferation assay (SRB, 72 hours)
# Assay type: cell-based
# Settings: Homo sapiens, A2780, 72 h, A2780 cells, 72 hours, SRB; read-out: Cell Proliferation (IC50)
# Experimental: Assay 2: In-Vitro Cell Proliferation Assay
# Assay Method. […] The compounds were then further diluted to 10× final concentration in culture media, whereupon 20 μL of each dilution was added to the plated cells with controls (e.g. DMSO and blank) to make a final volume of 200 μL. The final DMSO concentration in each well was 0.1%. The plates were then incubated for 72 hours at 37° C. in a 5% CO2 incubator. The number of viable cells was then assessed using sulforhodamine B (SRB) assay. Cells were fixed at 4° C. for 1 hour with the addition of 50 μL 30% trichloroacetic acid (TCA) to make a final concentration of 6% TCA. The plates were washed four times with H2O and allowed to dry for at least 1 hour, whereupon 100 μL of a 4% SRB in 1% acetic acid solution was added to each well and incubated at room temperature for at least 30 min. The plates were then washed three times with 1% acetic acid, dried, and treated with 100 μL of 10 mM Tris-Base solution. The plates were then read in a microplate reader at an absorbance of 570 nm. Background was generated on a separate plate with media only.
# Determination of IC50 Values. First, the signals from the background plate were averaged, then the background was subtracted from the test plates.
row,SMILES,IC50 [nM]
1,"CC(C)n1nccc1C(=O)N1CCC2(CC1)CC2CNC(=O)c1cc2ccncc2o1 (centres unmarked) [Example 325, N-[[6-(2-isopropylpyrazole-3-carbonyl)-6-azaspiro[2.5]octan-2-yl]methy]furo[2,3-c]pyridine-2-carboxamide]",24.7
2,"CN(C)Cc1ccc(C(=O)N2CCC3(CC2)CC3CNC(=O)c2cc3cnccc3[nH]2)cc1 (centres unmarked) [Example 345, N-[[6-[4-[(dimethylamino)methyl]benzoyl]-6-azaspiro[2.5]octan-2-yl]methyl]-1H-pyrrolo[3,2-c]pyridine-2-carboxamide]",80.8
3,"O=C(NCC1CC12CCN(C(=O)Cn1ccc(=O)[nH]c1=O)CC2)c1cc2ccncc2o1 (centres unmarked) [Example 81, N-[[6-[2-(2,4-dioxopyrimidin-1-yl)acetyl]-6-azaspiro[2.5]octan-2-yl]methyl]furo[2,3-c]pyridine-2-carboxamide]",2000
4,"O=C(NCC1CC12CCN(C(=O)CC1CCS(=O)(=O)C1)CC2)c1cc2ccncc2o1 (centres unmarked) [Example 80, N-[[6-[2-(1,1-dioxothiolan-3-yl)acetyl]-6-azaspiro[2.5]octan-2-yl]methyl]furo[2,3-c]pyridine-2-carboxamide]",1340
5,"CC(C)c1oncc1C(=O)N1CCC2(CC1)CC2CNC(=O)c1cc2ccncc2o1 (centres unmarked) [Example 318, N-[[6-(5-isopropylisoxazole-4-carbonyl)-6-azaspiro[2.5]octan-2-yl]methyl]furo[2,3-c]pyridine-2-carboxamide]",2000
6,"CN1CCC(C)(CC(=O)N2CCC3(CC2)CC3CNC(=O)c2cc3ccncc3o2)CC1 (centres unmarked) [Example 275, N-([6-[2-(1,4-dimethylpiperidin-4-yl)acetyl]-6-azaspiro[2.5]octan-1-yl]methyl)furo[2,3-c]pyridine-2-carboxamide]",17.7
7,"CS(=O)(=O)N1CCC(CC(=O)N2CCC3(CC2)CC3CNC(=O)c2cc3ccncc3o2)CC1 (centres unmarked) [Example 142, N-[[6-[2-(1-methylsulfonyl-4-piperidyl)acetyl]-6-azaspiro[2.5]octan-2-yl]methyl]furo[2,3-c]pyridine-2-carboxamide]",97.1
8,"CC(C)(C)OC(=O)N1CCC2(CC1)CC2CNC(=O)c1ccc2nccn2n1 (centres unmarked) [Example 402, tert-butyl 2-[(imidazo[1,2-b]pyridazine-6-carbonylamino)methyl]-6-azaspiro[2.5]octane-6-carboxylate]",2000
9,"CC(=O)Nc1cnccc1C(=O)N1CCC2(CC1)CC2CNC(=O)c1cc2ccncc2o1 (centres unmarked) [Example 265, N-[[6-(3-acetamidopyridine-4-carbonyl)-6-azaspiro[2.5]octan-2-yl]methyl]furo[2,3-c]pyridine-2-carboxamide]",2000
10,"O=C(NCC1CC12CCN(C(=O)c1ccnnc1)CC2)c1cc2ccncc2o1 (centres unmarked) [Example 113, N-[[6-(pyridazine-4-carbonyl)-6-azaspiro[2.5]octan-2-yl]methyl]furo[2,3-c]pyridine-2-carboxamide]",2000
11,"O=C(NCC1CC12CCN(C(=O)c1cn3cccnc3n1)CC2)c1cc2ccncc2o1 (centres unmarked) [Example 320, N-[[6-(imidazo[1,2-a]pyrimidine-2-carbonyl)-6-azaspiro[2.5]octan-2-yl]methyl]furo[2,3-c]pyridine-2-carboxamide]",549
12,"O=C(NCC1CC12CCN(C(=O)Cc1cnccn1)CC2)c1cc2ccncc2o1 (centres unmarked) [Example 50, N-[[6-(2-pyrazin-2-ylacetyl)-6-azasptro[2.5]octan-2-yl]methyl]furo[2,3-c]pyridine-2-carboxamide]",2000
13,"Cc1cc(C(=O)N2CCC3(CC2)CC3CNC(=O)c2cc3ccncc3o2)n[nH]1 (centres unmarked) [Example 108, N-[[6-(5-methyl-1H-pyrazole-3-carbonyl)-6-azaspiro[2.5]octan-2-yl]methyl]furo[2,3-c]pyridine-2-carboxamide]",449
14,"CCn1nccc1C(=O)N1CCC2(CC1)CC2CNC(=O)c1cc2ccncc2o1 (centres unmarked) [Example 297, N-[[6-(2-ethylpyrazole-3-carbonyl)-6-azaspiro[2.5]octan-2-yl]methyl]furo[2,3-c]pyridine-2-carboxamide]",278
15,"CC(=O)Nc1ccc(C(=O)N2CCC3(CC2)CC3CNC(=O)c2cc3ccncc3o2)cc1 (centres unmarked) [Example 72, N-[[6-(4-acetamidobenzoyl)-6-azaspiro[2.5]octan-2-yl]methyl]furo[2,3-c]pyridine-2-carboxamide]",48.1
16,"CC(C)(C)NC(=O)N1CCC2(CC1)CC2CNC(=O)c1cc2cnccc2[nH]1 (centres unmarked) [Example 203, N-[[6-(tert-butylcarbamoyl)-6-azaspiro[2.5]octan-2-yl]methyl]-1H-pyrrolo[3,2-c]pyridine-2-carboxamide]",2000
17,"CS(=O)(=O)Nc1ccc(C(=O)N2CCC3(CC2)CC3CNC(=O)c2cc3ccncc3o2)cc1 (centres unmarked) [Example 84, N-[[6-[4-(methanesulfonamido)benzoyl]-6-azaspiro[2.5]octan-2-yl]methyl]furo[2,3-c]pyridine-2-carboxamide]",185
18,"O=C(NCC1CC12CCN(C(=O)c1ccc(C(F)(F)F)nc1)CC2)c1cc2ccncc2o1 (centres unmarked) [Example 257, N-[[6-[6-(trifluoromethyl]pyndine-3-carbonyl]-6-azaspiro[2.5]octan-2-yl]methyl]furo[2,3-c]pyridine-2-carboxamide]",2000

row,SMILES,IC50 [nM]
1,"CC1(NC(=O)N2CCC3(CC2)CC3CNC(=O)N2Cc3ccncc3C2)COC1 (centres unmarked) [Example 361, N-[[6-[(3-methyloxetan-3-yl)carbamoyl]-6-azaspiro[2.5]octan-2-yl]methyl]-1,3-dihydropyrrolo[3,4-c]pyridine-2-carboxamide]",56.1
2,"N#Cc1cccc(CC(=O)N2CCC3(CC2)CC3CNC(=O)N2Cc3ccncc3C2)c1 (centres unmarked) [Example 178, N-[[6-(2-(3-cyanophenyl)acetyl]-6-azaspiro[2.5]octan-2-yl]methyl]-1,3-dihydropyrrolo(3,4-c]pyridine-2-carboxamide]",32.3
3,"Cc1nn(-c2ccc(F)cc2)c(C)c1C(=O)N1CCC2(CC1)CC2CNC(=O)c1cc2ccncc2o1 (centres unmarked) [Example 223, N-[[6-[1-(4-fluorophenyl)-3,5-dimethyl-pyrazole-4-carbonyl]-6-azaspiro[2.5]octan-2-yl]methyl]furo[2,3-c]pyridine-2-carboxamide]",1.92
4,"O=C(NCC1CC12CCN(C(=O)c1cc3cccn3cn1)CC2)c1cc2ccncc2o1 (centres unmarked) [Example 237, N-[[6-(pyrrolo[1,2-c]pyrimidine-3-carbonyl)-6-azaspiro[2.5]octan-2-yl]methyl]furo[2,3-c]pyridine-2-carboxamide]",166
5,"O=C(NCC1CC12CCN(C(=O)c1n[nH]c3c1CCC3)CC2)c1cc2ccncc2o1 (centres unmarked) [Example 333, N-[[6-(1,4,5,6-tetrahydrocyclopenta[c]pyrazole-3-carbonyl)-6-azaspiro[2.5]octan-2-yl]methyl]furo[2,3-c]pyridine-2-carboxamide]",6.81
6,"CN1CCN(Cc2ccc(C(=O)N3CCC4(CC3)CC4CNC(=O)c3cc4cnccc4[nH]3)cc2)CC1 (centres unmarked) [Example 343, N-[[6-[4-[(4-methylpiperazin-1-yl)methyl]benzoyl]-6-azaspiro[2.5]octan-2-yl]methyl]-1H-pyrrolo[3,2-c]pyridine-2-carboxamide]",42.5
7,"CC(C)(CO)OC(=O)N1CCC2(CC1)CC2CNC(=O)c1cc2ccncc2o1 (centres unmarked) [Example 215, (2-hydroxy-1,1-dimethyl-ethyl) 2-[(furo[2,3-c]pyridine-2-carbonylamino)methyl]-6-azaspiro[2.5]octane-6-carboxylate]",65.8
8,"Cc1ccc2nc(C(=O)N3CCC4(CC3)CC4CNC(=O)c3cc4ccncc4o3)cn2c1 (centres unmarked) [Example 315, N-[[6-(6-methylimidazo[1,2-a]pyridine-2-carbonyl)-6-azaspiro[2.5]octan-2-yl]methyl]furo[2,3-c]pyridine-2-carboxamide]",104
9,"O=C(NCC1CC12CCN(C(=O)c1ccnc3[nH]ccc13)CC2)c1cc2ccncc2o1 (centres unmarked) [Example 239, N-[[6-(1H-pyrrolo[2,3-b]pyridine-4-carbonyl)-6-azaspiro[2.5]octan-2-yl]methyl]furo[2,3-c]pyridine-2-carboxamide]",29.7
10,"O=C(NCC1CC12CCN(C(=O)CC1CCOCC1)CC2)c1cc2ccncc2o1 (centres unmarked) [Example 36, N-[[6-(2-tetrahydropyran-4-ylacetyl)-6-azaspiro[2.5]octan-2-yl]methyl]furo[2,3-c]pyridine-2-carboxamide]",185
11,"CN1CCC(n2cc(C(=O)N3CCC4(CC3)CC4CNC(=O)c3cc4ccncc4o3)cn2)C1 (centres unmarked) [Example 307, N-[[6-[1-(1-methylpyrrolidin-3-yl)pyrazole-4-carbonyl]-6-azaspiro[2.5]octan-2-yl]methyl]furo[2,3-c]pyridine-2-carboxamide]",26.7
12,"O=C(NCC1CC12CCN(C(=O)C1CCOCC1)CC2)c1cc2ccncc2o1 (centres unmarked) [Example 60, N-[[6-(tetrahydropyran-4-carbonyl)-6-azaspiro[2.5]octan-2-yl]methyl]furo[2,3-c]pyridine-2-carboxamide]",1530
13,"O=C(NCC1CC12CCN(C(=O)c1ccc3[nH]cnc3c1)CC2)c1cc2ccncc2o1 (centres unmarked) [Example 241, N-[[6-(1H-benzimidazole-5-carbonyl)-6-azaspiro[2.5]octan-2-yl]methyl]furo[2,3-c]pyridine-2-carboxamide]",70.2
14,CC(C)(C)OC(=O)N1CCC2(CC1)CC2CNC(=O)N1Cc2cnc(N)cc2C1 (centres unmarked) [Example 406],2000
15,"O=C(NCC1CC12CCN(C(=O)Cc1ccc(S(=O)(=O)C(F)(F)F)cc1)CC2)c1cc2ccncc2o1 (centres unmarked) [Example 154, N-[[6-[2-[4-(trifluoromethylsulfonyl)phenyl]acetyl]-6-azaspiro[2.5]octan-2-yl]methyl]furo[2,3-c]pyridine-2-carboxamide]",2610
16,"O=C(NCC1CC12CCN(C(=O)CN1CCCC1)CC2)c1cc2ccncc2o1 (centres unmarked) [Example 33, N-[[6-(2-pyrrolidin-1-ylacetyl)-6-azaspiro[2.5]octan-2-yl]methyl]furo[2,3-c]pyridine-2-carboxamide]",2000
17,"O=C(NCC1CC12CCN(C(=O)c1cccc(Cn3cncn3)c1)CC2)c1cc2ccncc2o1 (centres unmarked) [Example 249, N-[[6-[3-(1,2,4-triazol-1-ylmethyl)benzoyl]-6-azaspiro[2.5]octan-2-yl]methyl]furo[2,3-c]pyridine-2-carboxamide]",935
